From patent US20080057003A1, “Powder inhaler formulations” (priority 2001, published 2008)

Experiment: Triboelectrification in a cyclone separator (specific charge, mass transport, adhesion)
Type: physicochemical
Settings: for specific charge: untreated micronized drug, stainless steel cyclone, FIG. 1 / FIG. 3
Excerpt: In the processing of micronized or microfine active substances for DPI, it is common to subject the powder to a sieving process in order to remove large agglomerates prior to mixing with the carrier particles used in the DPI formulation. […] The experimental method for electrostatic charge determinations that was applied is outlined in more detail below.
Electrostatic charge of powder samples was investigated using a cyclone apparatus linked to a Faraday well and force compensation load cell to measure charge and mass simultaneously. 1 g samples of powder were transported through the apparatus using dry compressed air (rh<10%) at 8 m s^−1 for triboelectrification against a stainless steel surface.
The charge Q (nC) and mass M (g) values were used to calculate the specific charge Q/M (nC g^−1) at the completion of each experimental run. The results are mean values with coefficient of variation values for 5 replicates. The mass of material entering the Faraday well was used to quantify the mass transport through the apparatus and this was used to assess the flow and adhesion characteristics of the powder. In addition, the amount of material adhered to the cyclone wall was estimated visually and rated on a scale from 0 (no adhesion) to 3 (extensive adhesion).
Approximately 10 g of drug powder samples were placed in a 60M (250 μm) sieve and agitated using a sieve shaker (Glen Creston, 47-300) with an oscillation amplitude regulator at setting 20 for 20 minutes. Sieved powder samples were stored in glass jars and then kept in a desiccator for a week prior to charge investigations in the cyclone.

[1] = sieved samples, tiotropium treated with sorbitan derivative at 600 mg l^−1, or untreated, cyclone

SMILES	specific charge (sieved)	specific charge (unsieved)	Mean charge (cv %) [1]	Mean mass transfer (cv %) [1]
CC(Cc1ccc(O)cc1)NCC(O)c1cc(O)cc(O)c1 (stereo not drawn) [fenoterol, Fenoterol]	−92 nC g^−1	−40 nC g^−1		
C[N+]1(C)[C@@H]2C[C@@H](OC(=O)C(O)(c3cccs3)c3cccs3)C[C@H]1[C@@H]1O[C@@H]12 [tiotropium, Tiotropium]	+201 nC g^−1	+52 nC g^−1	+201 (3.2) nC g^−1	2.5 (8.0) %
